Laboratory results from ChEMBL document CHEMBL1123219, “Functional cholesteryl binding agents: synthesis, characterization, and evaluation of antibody binding to modified phospholipid vesicles” (J Med Chem, 1986).

Assays:
[1] = species on record: Homo sapiens; experiment: Compound was tested for human IgG protein binding at 100 ug/mL
[2] = species on record: Homo sapiens; experiment: Compound was tested for human IgG protein stability at 100 ug/mL; assay type: functional
[3] = species on record: Homo sapiens; experiment: Compound was tested for human IgG protein binding at 1 mg/mL

Row | Compound | Binding [1] | Stability [2] | Binding [3]
1 | CC(C)CCCC(C)C1CCC2C3CC=C4CC(OCCCCCCC(=O)ON5C(=O)CCC5=O)CCC4(C)C3CCC12C (stereo not drawn) | 69.5% | 91% | 46%
2 | CC(C)CCCC(C)C1CCC2C3CC=C4CC(OCCCCCCNC(=O)c5cccc(N6C(=O)C=CC6=O)c5)CCC4(C)C3CCC12C (stereo not drawn) | 61.1% | 86% | 39.5%
3 | CC(C)CCCC(C)C1CCC2C3CC=C4CC(OCCCCCCO)CCC4(C)C3CCC12C (stereo not drawn) | 58.7% | 86.4% | 31.9%
4 | CC(C)CCCC(C)C1CCC2C3CC=C4CC(OCCCCCC(=O)ON5C(=O)CCC5=O)CCC4(C)C3CCC12C (stereo not drawn) | 77.5% | 94.1% | 40.3%
5 | CC(C)CCCC(C)C1CCC2C3CC=C4CC(OCCCCCCN=C=S)CCC4(C)C3CCC12C (stereo not drawn) | 55.9% | 86.5% | 31.9%
6 | CC(C)CCCC(C)C1CCC2C3CC=C4CC(OCCCCCCSCc5ccc(C(=O)ON6C(=O)CCC6=O)cc5)CCC4(C)C3CCC12C (stereo not drawn) | 60.4% | 91.8% | 43.3%
